From patent US7074789B2, “Kinase inhibitors” (Amgen Inc., priority 1999, dated 2006)
“And” between values parts separate entries of the source, which are not always exact repeats. Identical values can stand only once.

Tests used:
Assay type in all cases: biochemical
Lck = target: T1, Lck (Homo sapiens, UniProt P06239); assay: Kinase inhibition assay (33P transfer), Lck; conditions: for IC50: read-out: Lck-1
T1 construct: Kinases are expressed as either kinase domains or full length constructs; made in house
Procedure, shortened: (§1)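 Kinase domains or full-length kinases, GST- or His-tagged and expressed in E. coli or baculovirus/High Five cells, transferred 33PO4 from ATP onto plate-bound poly(Glu,Tyr) 4:1 or poly(Arg,Ser) 3:1. After incubation, plates were washed with 0.5% phosphoric acid and counted by liquid scintillation.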

Zap-70 = target: T2, Zap-70 (Homo sapiens, UniProt P43403); assay: Kinase inhibition assay (33P transfer), Zap-70; conditions: for IC50: read-out: Zap-1
T2 construct: Kinases are expressed as either kinase domains or full length constructs; made in house
T2 sequence (P43403 1-619): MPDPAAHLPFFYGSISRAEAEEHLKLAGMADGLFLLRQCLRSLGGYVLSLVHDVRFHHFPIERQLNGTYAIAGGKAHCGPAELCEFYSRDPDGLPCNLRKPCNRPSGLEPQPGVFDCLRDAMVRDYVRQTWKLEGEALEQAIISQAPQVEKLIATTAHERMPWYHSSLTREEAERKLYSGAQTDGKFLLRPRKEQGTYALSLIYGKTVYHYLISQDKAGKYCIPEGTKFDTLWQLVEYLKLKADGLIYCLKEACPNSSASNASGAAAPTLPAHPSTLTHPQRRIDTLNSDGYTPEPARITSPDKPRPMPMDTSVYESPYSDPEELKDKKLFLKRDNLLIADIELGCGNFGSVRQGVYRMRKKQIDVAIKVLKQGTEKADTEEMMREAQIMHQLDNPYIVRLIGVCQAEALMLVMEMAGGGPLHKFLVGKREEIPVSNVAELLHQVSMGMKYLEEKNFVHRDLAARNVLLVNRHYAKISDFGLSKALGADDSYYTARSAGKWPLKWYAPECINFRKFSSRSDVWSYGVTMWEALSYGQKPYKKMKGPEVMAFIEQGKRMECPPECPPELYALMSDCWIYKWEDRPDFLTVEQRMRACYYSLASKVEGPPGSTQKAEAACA
Procedure, shortened: as §1

Itk = target: T3, Itk (Homo sapiens, UniProt Q08881); assay: Kinase inhibition assay (33P transfer), Itk; conditions: for IC50: read-out: Itk-1
T3 construct: Kinases are expressed as either kinase domains or full length constructs; made in house
T3 sequence (Q08881 1-620): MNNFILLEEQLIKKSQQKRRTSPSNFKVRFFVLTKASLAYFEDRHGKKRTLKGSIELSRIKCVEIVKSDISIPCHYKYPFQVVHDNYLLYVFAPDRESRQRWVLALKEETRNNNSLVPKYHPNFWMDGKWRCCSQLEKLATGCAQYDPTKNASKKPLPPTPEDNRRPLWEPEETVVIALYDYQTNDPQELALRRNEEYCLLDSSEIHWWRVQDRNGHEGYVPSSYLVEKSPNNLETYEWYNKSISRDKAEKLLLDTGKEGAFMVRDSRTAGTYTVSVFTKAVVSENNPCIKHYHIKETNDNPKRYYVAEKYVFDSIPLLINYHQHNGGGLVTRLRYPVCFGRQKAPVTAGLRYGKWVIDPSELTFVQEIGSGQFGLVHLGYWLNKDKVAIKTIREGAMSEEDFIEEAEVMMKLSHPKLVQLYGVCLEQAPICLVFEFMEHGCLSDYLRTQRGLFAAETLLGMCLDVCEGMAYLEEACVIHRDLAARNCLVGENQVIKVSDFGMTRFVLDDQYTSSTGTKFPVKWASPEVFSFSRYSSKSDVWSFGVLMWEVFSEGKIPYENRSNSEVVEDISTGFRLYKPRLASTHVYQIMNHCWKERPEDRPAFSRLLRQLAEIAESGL
Procedure, shortened: (§2)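 Radiometric format: recombinant tagged kinase (catalytic domain or whole protein, sometimes combined with regulatory polypeptides) phosphorylates immobilised poly(Glu,Tyr) 4:1 or poly(Arg,Ser) 3:1 using [33P]ATP. Wells are washed in 0.5% phosphoric acid, then counted. IC50 is taken where substrate labelling falls by half.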

EGFR = target: T4, EGFR (Homo sapiens, UniProt P00533); assay: Kinase inhibition assay (33P transfer), EGFR; conditions: Table 2, kinase inhibition class; for IC50: read-out: EGFR-1
T4 construct: Kinases are expressed as either kinase domains or full length constructs; made in house
Procedure, shortened: as §2

ErbB2 = target: T5, ErbB2 (Homo sapiens, UniProt P04626); assay: Kinase inhibition assay (33P transfer), ErbB2; conditions: for IC50: read-out: ErbB2-2
T5 construct: Kinases are expressed as either kinase domains or full length constructs; made in house
Description: The inhibitor compounds described herein are screened in the following manner. Kinases suitable for use in the following protocol to determine kinase activity of the compounds described herein include, -but are not limited to: Lck, Lyn, Src, Fyn, Syk, Zap-70, Itk, Tec, Btk, EGFR, ErbB2, Kdr, Flt-1, Flt-3, Tek, c-Met, InsR, and AKT.
Kinases are expressed as either kinase domains or full length constructs fused to glutathione S-transferase (GST) or polyHistidine tagged fusion proteins in either E. colior Baculovirus-High Five expression systems. They are purified to near homogeneity by affinity chromatography essentially as previously described (Lehr et al., 1996; Gish et al., 1995). In some instances, kinases are co-expressed or mixed with purified or partially purified regulatory polypeptides prior to measurement of activity.
Kinase activity and inhibition are measured essentially by established protocols (Braunwalder et al., 1996). Briefly, The transfer of ^33PO4 from ATP to the synthetic substrates poly(Glu, Tyr) 4:1 or poly(Arg, Ser) 3:1 attached to the bioactive surface of microtiter plates serves as the basis to evaluate enzyme activity. After an incubation period, the amount of phosphate transferred is measured by first washing the plate with 0.5% phosphoric acid, adding liquid scintillant, and then counting in a liquid scintillation detector. The IC50 is determined by the concentration of compound that causes a 50% reduction in the amount of […] incorporated onto the substrate bound to the plate.

Kdr = target: T6, Kdr (Homo sapiens, UniProt P35968); assay: Kinase inhibition assay (33P transfer), Kdr; conditions: for IC50: read-out: KDR-1
T6 construct: Kinases are expressed as either kinase domains or full length constructs; made in house
Procedure, shortened: as §1

c-Met = target: T7, c-Met (Homo sapiens, UniProt P08581); assay: Kinase inhibition assay (33P transfer), c-Met; conditions: Table 2, kinase inhibition class; for IC50: read-out: Met-1
T7 construct: Kinases are expressed as either kinase domains or full length constructs; made in house
Procedure, shortened: as §2

AKT = target: T8, AKT (Homo sapiens, UniProt Q9Y243); assay: Kinase inhibition assay (33P transfer), AKT; conditions: Table 2, kinase inhibition class; for IC50: read-out: AKT3-1
T8 construct: Kinases are expressed as either kinase domains or full length constructs; made in house
Procedure, shortened: as §1

IGFR-1 = target: T9, IGFR-1 (Homo sapiens, UniProt P08069); assay: Kinase inhibition assay, IGFR-1 (Table 2); conditions: Table 2, kinase inhibition class
T9 construct: Kinases are expressed as either kinase domains or full length constructs; made in house

PDGFRB = target: T10, PDGFRB (Homo sapiens, UniProt P09619); assay: Kinase inhibition assay (33P transfer), PDGFRB; conditions: for IC50: read-out: PDGFRB-1
T10 construct: Kinases are expressed as either kinase domains or full length constructs; made in house

T6 sequence (P35968 20-1356, species assumed): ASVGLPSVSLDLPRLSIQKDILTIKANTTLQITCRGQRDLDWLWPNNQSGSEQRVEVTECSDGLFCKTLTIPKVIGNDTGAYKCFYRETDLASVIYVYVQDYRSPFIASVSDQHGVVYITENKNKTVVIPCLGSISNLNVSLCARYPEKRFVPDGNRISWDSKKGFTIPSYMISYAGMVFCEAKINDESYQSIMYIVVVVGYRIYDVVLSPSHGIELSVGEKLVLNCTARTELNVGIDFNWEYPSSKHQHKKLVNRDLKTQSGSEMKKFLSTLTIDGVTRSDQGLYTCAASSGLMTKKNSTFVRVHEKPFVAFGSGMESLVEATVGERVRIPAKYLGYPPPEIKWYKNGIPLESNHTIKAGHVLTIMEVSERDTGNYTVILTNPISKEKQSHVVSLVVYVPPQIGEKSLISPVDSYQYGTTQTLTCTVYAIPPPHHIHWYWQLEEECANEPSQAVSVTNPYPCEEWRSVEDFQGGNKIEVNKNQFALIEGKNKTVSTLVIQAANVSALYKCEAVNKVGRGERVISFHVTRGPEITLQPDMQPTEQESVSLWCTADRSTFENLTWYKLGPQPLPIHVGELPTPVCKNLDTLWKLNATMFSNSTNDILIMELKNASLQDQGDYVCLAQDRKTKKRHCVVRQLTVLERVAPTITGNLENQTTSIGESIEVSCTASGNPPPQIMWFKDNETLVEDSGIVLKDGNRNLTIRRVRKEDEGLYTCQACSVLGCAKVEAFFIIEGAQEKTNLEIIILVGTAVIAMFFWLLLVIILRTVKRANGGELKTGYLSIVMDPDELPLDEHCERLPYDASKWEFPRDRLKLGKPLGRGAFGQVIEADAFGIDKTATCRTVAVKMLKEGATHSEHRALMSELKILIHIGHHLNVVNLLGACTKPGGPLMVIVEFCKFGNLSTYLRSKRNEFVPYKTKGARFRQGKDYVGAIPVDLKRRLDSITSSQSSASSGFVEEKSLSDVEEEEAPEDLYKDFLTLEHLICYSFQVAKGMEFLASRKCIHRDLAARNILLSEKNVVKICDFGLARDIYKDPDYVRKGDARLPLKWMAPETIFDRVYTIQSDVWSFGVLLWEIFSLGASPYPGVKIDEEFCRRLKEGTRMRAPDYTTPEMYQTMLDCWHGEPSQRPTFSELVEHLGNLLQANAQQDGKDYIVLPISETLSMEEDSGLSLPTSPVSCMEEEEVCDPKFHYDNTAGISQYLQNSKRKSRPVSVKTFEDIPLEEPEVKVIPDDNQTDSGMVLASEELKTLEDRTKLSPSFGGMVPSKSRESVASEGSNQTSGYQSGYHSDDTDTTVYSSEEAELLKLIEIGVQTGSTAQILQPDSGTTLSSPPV
T4 sequence (P00533 25-1210, species assumed): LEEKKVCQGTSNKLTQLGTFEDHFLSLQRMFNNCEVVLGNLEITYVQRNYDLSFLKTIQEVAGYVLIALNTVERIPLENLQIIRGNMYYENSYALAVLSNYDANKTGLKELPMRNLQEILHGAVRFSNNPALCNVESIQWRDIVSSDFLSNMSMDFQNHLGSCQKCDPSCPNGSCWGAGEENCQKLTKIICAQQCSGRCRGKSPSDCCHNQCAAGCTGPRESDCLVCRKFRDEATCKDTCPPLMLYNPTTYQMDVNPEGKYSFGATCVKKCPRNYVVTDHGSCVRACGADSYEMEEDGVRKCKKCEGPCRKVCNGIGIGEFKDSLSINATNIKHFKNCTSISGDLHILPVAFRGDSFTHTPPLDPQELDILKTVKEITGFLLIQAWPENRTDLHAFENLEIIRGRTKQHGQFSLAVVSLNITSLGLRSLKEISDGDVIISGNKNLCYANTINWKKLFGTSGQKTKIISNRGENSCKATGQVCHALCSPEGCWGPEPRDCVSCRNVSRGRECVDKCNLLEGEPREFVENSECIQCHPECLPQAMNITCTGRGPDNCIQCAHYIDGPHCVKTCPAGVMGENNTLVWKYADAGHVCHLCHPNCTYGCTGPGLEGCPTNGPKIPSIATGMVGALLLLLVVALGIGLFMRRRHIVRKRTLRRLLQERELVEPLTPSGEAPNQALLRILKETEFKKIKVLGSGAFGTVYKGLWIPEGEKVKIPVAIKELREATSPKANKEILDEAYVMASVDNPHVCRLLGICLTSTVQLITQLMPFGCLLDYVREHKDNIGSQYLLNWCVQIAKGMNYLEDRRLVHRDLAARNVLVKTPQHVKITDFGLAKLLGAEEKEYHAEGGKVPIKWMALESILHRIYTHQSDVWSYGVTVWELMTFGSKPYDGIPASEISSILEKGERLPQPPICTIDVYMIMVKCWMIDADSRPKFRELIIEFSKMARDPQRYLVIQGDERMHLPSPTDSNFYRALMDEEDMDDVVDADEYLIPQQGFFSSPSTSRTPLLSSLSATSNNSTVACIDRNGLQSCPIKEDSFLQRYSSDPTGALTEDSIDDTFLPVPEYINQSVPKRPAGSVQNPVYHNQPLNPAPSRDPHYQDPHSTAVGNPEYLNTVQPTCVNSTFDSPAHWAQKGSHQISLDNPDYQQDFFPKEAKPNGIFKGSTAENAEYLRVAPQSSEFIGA
T5 sequence (P04626 23-1255, species assumed): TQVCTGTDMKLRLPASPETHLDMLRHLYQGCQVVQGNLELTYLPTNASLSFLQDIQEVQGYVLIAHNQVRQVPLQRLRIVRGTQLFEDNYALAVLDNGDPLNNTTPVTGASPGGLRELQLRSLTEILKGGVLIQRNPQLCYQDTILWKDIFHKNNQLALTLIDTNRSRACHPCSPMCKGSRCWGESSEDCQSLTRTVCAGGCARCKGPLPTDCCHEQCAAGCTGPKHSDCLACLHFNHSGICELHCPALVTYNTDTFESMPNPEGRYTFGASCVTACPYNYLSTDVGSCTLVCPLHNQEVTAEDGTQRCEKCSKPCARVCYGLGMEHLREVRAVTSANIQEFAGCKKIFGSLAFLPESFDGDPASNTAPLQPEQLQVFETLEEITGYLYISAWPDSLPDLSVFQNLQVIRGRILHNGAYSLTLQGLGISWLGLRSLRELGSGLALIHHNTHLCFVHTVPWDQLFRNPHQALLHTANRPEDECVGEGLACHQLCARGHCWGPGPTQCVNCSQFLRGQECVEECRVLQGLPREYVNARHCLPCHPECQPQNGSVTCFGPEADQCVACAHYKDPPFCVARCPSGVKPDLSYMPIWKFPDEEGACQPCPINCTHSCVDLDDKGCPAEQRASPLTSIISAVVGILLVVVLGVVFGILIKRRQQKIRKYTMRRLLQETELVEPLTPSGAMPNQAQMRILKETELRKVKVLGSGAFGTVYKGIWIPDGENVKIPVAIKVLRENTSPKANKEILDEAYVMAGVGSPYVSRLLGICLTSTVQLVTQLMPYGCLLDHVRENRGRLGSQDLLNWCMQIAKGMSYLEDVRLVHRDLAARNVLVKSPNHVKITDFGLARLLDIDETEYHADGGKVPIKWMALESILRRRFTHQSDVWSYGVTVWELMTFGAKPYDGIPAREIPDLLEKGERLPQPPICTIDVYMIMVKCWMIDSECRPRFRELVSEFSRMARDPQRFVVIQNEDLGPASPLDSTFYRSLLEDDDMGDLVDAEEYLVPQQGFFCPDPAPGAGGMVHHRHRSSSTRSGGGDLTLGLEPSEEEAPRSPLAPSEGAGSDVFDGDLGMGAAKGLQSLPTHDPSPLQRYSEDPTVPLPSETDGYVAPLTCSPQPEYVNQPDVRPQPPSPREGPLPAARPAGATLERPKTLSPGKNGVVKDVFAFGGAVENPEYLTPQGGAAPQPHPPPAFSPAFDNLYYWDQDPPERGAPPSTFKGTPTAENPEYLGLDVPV
T9 sequence (P08069 31-1367): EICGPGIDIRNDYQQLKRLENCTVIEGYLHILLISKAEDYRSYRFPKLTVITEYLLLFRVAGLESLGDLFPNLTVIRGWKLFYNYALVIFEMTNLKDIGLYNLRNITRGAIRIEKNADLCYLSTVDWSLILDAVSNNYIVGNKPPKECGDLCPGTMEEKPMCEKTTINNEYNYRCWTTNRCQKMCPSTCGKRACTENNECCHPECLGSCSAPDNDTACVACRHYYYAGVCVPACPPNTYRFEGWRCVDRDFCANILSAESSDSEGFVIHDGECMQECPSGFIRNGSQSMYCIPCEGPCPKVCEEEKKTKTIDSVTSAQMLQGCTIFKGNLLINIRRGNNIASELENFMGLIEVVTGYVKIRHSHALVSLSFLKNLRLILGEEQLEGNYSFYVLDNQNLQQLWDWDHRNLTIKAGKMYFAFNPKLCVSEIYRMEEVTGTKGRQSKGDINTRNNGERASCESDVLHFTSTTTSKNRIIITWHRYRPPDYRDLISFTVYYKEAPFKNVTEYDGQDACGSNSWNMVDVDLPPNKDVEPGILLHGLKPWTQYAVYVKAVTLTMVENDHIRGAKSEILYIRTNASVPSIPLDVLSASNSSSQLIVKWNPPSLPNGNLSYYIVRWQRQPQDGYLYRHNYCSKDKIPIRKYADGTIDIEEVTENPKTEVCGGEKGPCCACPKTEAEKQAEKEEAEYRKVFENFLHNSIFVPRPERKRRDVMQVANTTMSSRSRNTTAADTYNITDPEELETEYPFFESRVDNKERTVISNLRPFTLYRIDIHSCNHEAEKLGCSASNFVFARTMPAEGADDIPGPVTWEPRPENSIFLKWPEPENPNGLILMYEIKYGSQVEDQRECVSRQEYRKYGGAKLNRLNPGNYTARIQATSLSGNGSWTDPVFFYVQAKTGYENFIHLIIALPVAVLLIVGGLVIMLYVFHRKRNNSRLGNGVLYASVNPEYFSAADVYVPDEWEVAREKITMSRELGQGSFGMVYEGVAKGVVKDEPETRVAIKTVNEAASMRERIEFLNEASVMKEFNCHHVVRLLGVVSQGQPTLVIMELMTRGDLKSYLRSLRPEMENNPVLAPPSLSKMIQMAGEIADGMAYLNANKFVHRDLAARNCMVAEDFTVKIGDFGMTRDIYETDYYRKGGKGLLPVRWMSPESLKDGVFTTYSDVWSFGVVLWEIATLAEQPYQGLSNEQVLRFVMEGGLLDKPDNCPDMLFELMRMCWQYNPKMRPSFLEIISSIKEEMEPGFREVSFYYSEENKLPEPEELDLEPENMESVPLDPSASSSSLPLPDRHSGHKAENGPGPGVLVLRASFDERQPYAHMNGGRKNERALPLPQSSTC

SMILES	IC50 (Lck) [µM]	IC50 (Zap-70) [µM]	IC50 (Itk) [µM]	IC50 (EGFR) [µM]	IC50 (ErbB2)	IC50 (Kdr) [µM]	IC50 (c-Met) [µM]	IC50 (AKT) [µM]	IC50 (IGFR-1) [µM]	IC50 (PDGFRB) [µM]	Lck-1 (Lck)	Zap-1 (Zap-70)	Itk-1 (Itk)	EGFR-1 (EGFR)	ErbB2-2 (ErbB2)	KDR-1 (Kdr)	Met-1 (c-Met)	AKT3-1 (AKT)	IGFR-1 (IGFR-1)	PDGFRB-1 (PDGFRB)
COc1cc(Nc2ncnc(-n3c(NC(C)(C)c4ccccc4)nc4ccccc43)n2)cc(OC)c1OC [Compound 569]	< 0.782	> 8.8	> 8.8	> 8.8	> 8.8 µM	< 0.782	> 8.8	> 8.8	> 8.8	< 0.782	–	–	–	–	–	–	–	–	–	–
COc1cc(Nc2ncnc(Nc3cc(F)cc(C(F)(F)F)c3)n2)cc(OC)c1OC [Compound 632]	0.91 to 5.46	> 10.2	> 10.2	< 0.91	0.91 to 5.46 µM	7.97 to 10.2	> 10.2	> 10.2	0.91 to 5.46	0.91 to 5.46	–	–	–	–	–	–	–	–	–	–
COc1cc(Nc2ncnc(-n3c(NCc4ncc[nH]4)nc4ccccc43)n2)cc(OC)c1OC [Compound 583]	0.845 to 5.07	> 9.5	0.845 to 5.07	> 9.5	> 9.5 µM	5.07 to 7.39	> 9.5	> 9.5	0.845 to 5.07	0.845 to 5.07	–	–	–	–	–	–	–	–	–	–
COc1cc(Nc2ncnc(Nc3ccc4nn(Cc5ccccc5)cc4c3)n2)cc(OC)c1OC [Compound 555]	< 0.827	7.24 to 9.31	7.24 to 9.31	< 0.827	0.827 to 4.96 µM	0.827 to 4.96	4.96 to 7.24	4.96 to 7.24	< 0.827	0.827 to 4.96	–	–	–	–	–	–	–	–	–	–
Cc1ccc2c(c1)CCCN2c1ncnc(NCc2cccnc2)n1 [Compound 777]	> 13.5	> 13.5	10.5 to 13.5	> 13.5	> 13.5 µM	> 13.5	> 13.5	> 13.5	> 13.5	> 13.5	–	–	–	–	–	–	–	–	–	–
Fc1ccc(Nc2ncnc(Nc3ccc4[nH]ncc4c3)n2)cc1Cl [Compound 717]	1.12 to 6.75	1.12 to 6.75	1.12 to 6.75	< 1.12	1.12 to 6.75 µM	1.12 to 6.75	1.12 to 6.75	> 12.6	1.12 to 6.75	< 1.12	–	–	–	–	–	–	–	–	–	–
CCCN(CC1CC1)c1ncnc(Nc2cc(OC)c(OC)c(OC)c2)n1 [Compound 626]	1.07 to 6.43	> 12	9.37 to 12	9.37 to 12	> 12 µM	1.07 to 6.43	1.07 to 6.43	> 12	> 12	1.07 to 6.43	–	–	–	–	–	–	–	–	–	–
CN(c1cccc(Cl)c1)c1ncnc(Nc2ccc(Cl)c(Cl)c2)n1 [Compound 708]	> 11.8	6.3 to 9.19	> 11.8	> 11.8	> 11.8 µM	> 11.8	> 11.8	> 11.8	> 11.8	> 11.8	–	–	–	–	–	–	–	–	–	–
COc1cc(Nc2ncnc(-n3c(NCc4ccc(C)cc4C)nc4ccccc43)n2)cc(OC)c1OC [Compound 584]	0.782 to 4.69	> 8.8	> 8.8	4.69 to 6.84	4.69 to 6.84 µM and 0.782 to 4.69 µM	0.782 to 4.69	6.84 to 8.8	> 8.8	> 8.8	> 8.8	–	–	–	–	–	–	–	–	–	–
CC1CCc2ccccc2N1c1ncnc(N2c3ccccc3CCC2C)n1 (centres unmarked) [Compound 622]	> 12.1	> 12.1	> 12.1	6.46 to 9.42	6.46 to 9.42 µM	> 12.1	> 12.1	> 12.1	> 12.1	9.42 to 12.1	–	–	–	–	–	–	–	–	–	–
CN(c1cccc(Cl)c1)c1ncnc(Nc2ccc(CC(=O)O)cc2)n1 [Compound 705]	> 12.2	> 12.2	> 12.2	< 1.08	1.08 to 6.49 µM	9.46 to 12.2	> 12.2	> 12.2	> 12.2	> 12.2	–	–	–	–	–	–	–	–	–	–
CCN(CC)CCNc1ncnc(N(C)c2cccc(Cl)c2)n1 [Compound 745]	> 13.4	> 13.4	> 13.4	1.19 to 7.17	> 13.4 µM	> 13.4	> 13.4	> 13.4	> 13.4	> 13.4	–	–	–	–	–	–	–	–	–	–
CCN(CC)c1ccc(Nc2ncnc(N3CCCc4cc(C)ccc43)n2)cc1 [Compound 779]	> 11.6	> 11.6	> 11.6	> 11.6	> 11.6 µM	> 11.6	> 11.6	> 11.6	> 11.6	> 11.6	–	–	–	–	–	–	–	–	–	–
COc1ccc(Nc2ncnc(NCc3c(C)cccc3Cl)n2)cc1OC [Compound 791]	> 11.7	> 11.7	> 11.7	> 11.7	6.22 to 9.07 µM	> 11.7	> 11.7	> 11.7	> 11.7	> 11.7	–	–	–	–	–	–	–	–	–	–
COc1cc(Nc2ncnc(-n3c(NCc4ccc(OC(F)(F)F)cc4)nc4ccccc43)n2)cc(OC)c1OC [Compound 571]	> 7.93	> 7.93	> 7.93	> 7.93	4.23 to 6.17 µM	> 7.93	6.17 to 7.93	> 7.93	> 7.93	> 7.93	–	–	–	–	–	–	–	–	–	–
Fc1ccc(Nc2ncnc(Nc3ccc4[nH]ccc4c3)n2)cc1Cl [Compound 715]	–	–	–	–	–	–	–	–	–	–	E (E>4.5 ug/mL)	C (C>2.4 and <3.5 ug/mL)	D (D>3.5 and <4.5 ug/mL)	A (A<0.4 ug/mL)	B (B>0.4 and <2.4 ug/mL)	B (B>0.4 and <2.4 ug/mL)	C (C>2.4 and <3.5 ug/mL)	D (D>3.5 and <4.5 ug/mL)	B (B>0.4 and <2.4 ug/mL)	B (B>0.4 and <2.4 ug/mL)
CN(c1cccc(Cl)c1)c1ncnc(Nc2ccncc2)n1 [Compound 756]	1.28 to 7.67	> 14.4	> 14.4	< 1.28	> 14.4 µM	> 14.4	1.28 to 7.67	> 14.4	> 14.4	1.28 to 7.67	–	–	–	–	–	–	–	–	–	–
